Legend:
[1] = human volunteers (CI-966); clinical reports (Tiagabine); cited from earlier work
[2] = literature reports; cited from earlier work
human GAT-1 = human GAT-1 (Homo sapiens, UniProt P30531); conditions: read-out: IC50, human GAT-1, inhibition of [3H]GABA uptake
Method: (§1) Cells were grown under standard conditions (37° C., 5% CO2) in DMEM (Dulbecco's modified Eagles's medium; GIBCO, Grand Island, N.Y.).
(§2) Cells grown in 24-well plates were washed 3× with HEPES-buffered saline (HBS, in mM: NaCl, 150; HEPES, 20; CaCl2, 1; glucose, 10; KCl, 5; MgCl2 1; pH 7.4) and allowed to equilibrate on a 37° C. slide warmer. After 10 minutes the medium was removed and unlabeled drugs in HBS were added (450 μl/well). […] Plates were incubated at 37° C. for 10 minutes, then washed rapidly 3× with ice-cold HBS, using a 24-position plate washer (Brandel, Gaithersburg, Mass.; model PW-12). Cells were solubilized with 0.05% sodium deoxycholate/0.1N NaOH (0.25 ml/well), an aliquot neutralized with 1N HCl, and radioactivity was determined by scintillation counting. Protein was quantified in an aliquot of the solubilized cells using a BIO-RAD protein assay kit, according to the manufacturer's directions.
(§3) Competition curves were conducted in duplicate, using 10 concentrations of unlabeled drug. […] All data throughout the paper represent means±S.E.M.

human GAT-3 = molecular target: T1, human GAT-3 (Homo sapiens, UniProt P48066); assay: Inhibition of [3H]GABA uptake, human GAT-3 stable LM(tk-) cell line; format: cell-based; conditions: read-out: IC50, human GAT-3, inhibition of [3H]GABA uptake, Table 9, means ± S.E.M.
T1 construct: expressed in transfected cells
T1 sequence (P48066 1-632): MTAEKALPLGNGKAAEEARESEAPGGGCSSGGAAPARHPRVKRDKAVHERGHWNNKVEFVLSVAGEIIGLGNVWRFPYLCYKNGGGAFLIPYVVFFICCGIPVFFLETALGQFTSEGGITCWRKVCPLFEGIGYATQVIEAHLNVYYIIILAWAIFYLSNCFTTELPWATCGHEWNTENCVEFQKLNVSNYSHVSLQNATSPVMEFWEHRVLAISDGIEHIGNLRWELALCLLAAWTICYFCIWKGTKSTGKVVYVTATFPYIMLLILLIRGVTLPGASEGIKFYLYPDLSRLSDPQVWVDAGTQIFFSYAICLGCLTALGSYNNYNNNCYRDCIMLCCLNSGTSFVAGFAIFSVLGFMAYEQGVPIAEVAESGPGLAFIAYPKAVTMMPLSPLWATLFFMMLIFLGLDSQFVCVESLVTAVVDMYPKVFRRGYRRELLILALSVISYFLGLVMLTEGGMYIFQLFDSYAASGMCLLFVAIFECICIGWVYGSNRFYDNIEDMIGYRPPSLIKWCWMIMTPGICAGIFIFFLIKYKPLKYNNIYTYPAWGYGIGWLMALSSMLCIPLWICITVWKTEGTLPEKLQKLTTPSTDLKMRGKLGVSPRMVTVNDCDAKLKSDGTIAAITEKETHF
Method: as §1, §2, §3

human BGT-1 = molecular target: T2, human BGT-1 (Homo sapiens, UniProt P48065); conditions: read-out: IC50, human BGT-1, inhibition of [3H]GABA uptake; Table 9; stable LM(tk-) cell line; means ± S.E.M.
T2 sequence (P48065 1-614 C10Y): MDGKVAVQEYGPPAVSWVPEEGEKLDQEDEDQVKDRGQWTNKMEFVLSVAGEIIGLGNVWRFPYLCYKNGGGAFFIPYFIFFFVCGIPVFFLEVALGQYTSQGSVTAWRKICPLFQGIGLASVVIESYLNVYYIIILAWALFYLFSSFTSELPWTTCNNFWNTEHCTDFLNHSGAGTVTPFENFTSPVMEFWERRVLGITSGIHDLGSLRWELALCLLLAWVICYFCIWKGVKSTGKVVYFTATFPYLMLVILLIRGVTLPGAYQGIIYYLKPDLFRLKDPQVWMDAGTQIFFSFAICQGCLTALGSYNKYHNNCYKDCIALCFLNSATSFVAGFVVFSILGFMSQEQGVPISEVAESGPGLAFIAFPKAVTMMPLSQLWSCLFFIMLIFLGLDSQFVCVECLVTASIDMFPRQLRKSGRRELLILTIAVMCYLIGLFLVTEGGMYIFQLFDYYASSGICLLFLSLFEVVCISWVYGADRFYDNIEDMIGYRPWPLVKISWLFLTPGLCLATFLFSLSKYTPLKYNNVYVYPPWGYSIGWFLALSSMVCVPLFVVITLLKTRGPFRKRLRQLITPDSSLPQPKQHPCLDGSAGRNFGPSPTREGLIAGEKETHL
Method: Cells were grown under standard conditions (37° C., 5% CO2) in Dulbecco's modified Eagles's medium (GIBCO, Grand Island, N.Y.).
After 10 minutes the medium was removed and unlabeled drugs in HBS were added (450 μl/well). […] Plates were incubated at 37° C. for 10 minutes, then washed rapidly 3× with ice-cold HBS, using a 24-position plate washer (Brandel, Gaithersburg, Mass.; model PW-12). Cells were solubilized with 0.05% sodium deoxycholate/0.1N NaOH (0.25 ml/well), an aliquot neutralized with 1N HCl, and radioactivity was determined by scintillation counting. Protein was quantified in an aliquot of the solubilized cells using a BIO-RAD protein assay kit, according to the manufacturer's directions.
Data Analysis: Competition curves were conducted in duplicate, using 10 concentrations of unlabeled drug. […] All data throughout the paper represent means±SEM.
as §1, §2, §3

human GAT-1, sequence (P30531 whole entry): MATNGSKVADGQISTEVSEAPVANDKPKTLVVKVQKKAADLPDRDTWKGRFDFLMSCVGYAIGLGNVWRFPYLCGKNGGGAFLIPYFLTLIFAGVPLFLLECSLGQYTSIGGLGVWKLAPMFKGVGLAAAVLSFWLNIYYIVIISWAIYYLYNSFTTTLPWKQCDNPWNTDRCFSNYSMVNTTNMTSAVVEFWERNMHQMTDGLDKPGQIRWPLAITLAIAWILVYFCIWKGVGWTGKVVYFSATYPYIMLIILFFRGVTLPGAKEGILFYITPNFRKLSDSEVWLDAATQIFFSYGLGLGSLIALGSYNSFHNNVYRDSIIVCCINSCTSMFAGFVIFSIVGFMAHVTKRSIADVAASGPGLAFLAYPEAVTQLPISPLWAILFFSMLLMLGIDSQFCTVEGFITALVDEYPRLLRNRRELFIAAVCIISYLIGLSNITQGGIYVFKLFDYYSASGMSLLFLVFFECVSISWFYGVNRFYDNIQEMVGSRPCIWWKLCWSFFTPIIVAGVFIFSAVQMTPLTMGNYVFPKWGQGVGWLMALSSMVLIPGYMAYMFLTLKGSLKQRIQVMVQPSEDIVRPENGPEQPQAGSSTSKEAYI

Question: Which results are given for `O=C(O)C1=CCCN(CCOC(c2ccc(C(F)(F)F)cc2)c2ccc(C(F)(F)F)cc2)C1` [CI-966, [1-[2-[bis4(trifluoromethyl)phenyl]methoxy]ethyl]-1,2,5,6-tetrahydro-3-pyridinecarboxylic acid]?
Answer: severe adverse effects in humans [1]: Severe adverse effects were noted; anticonvulsive activity in animals [2]: display anticonvulsive activity; IC50 (human GAT-1): 0.26 ± 0.05 µM; IC50 (human GAT-3): 333 ± 76 µM; IC50 (human BGT-1): 300 ± 10 µM

From patent publication US5766848A (Synaptic Pharmaceutical Corporation, priority 1994, dated 1998)
